Counter-ions that a name gives are not always drawn.
These compounds were tested against PI3Kδ (p110δ/p85α) (Homo sapiens (Human), UniProt O00329) (assay: Example A3: PI3Kδ scintillation proximity assay). Settings: assay not specified.
Assay type: biochemical
How it was run: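 p110δ/p85α (4 nM) phosphorylated 20 μM PIP2 with 20 μM ATP plus [γ-33P]ATP in MOPS pH 6.7, MgCl2, DTT, CHAPS, 0.5% DMSO, at RT. Stopped with EDTA/excess ATP, product captured on WGA SPA beads overnight and counted; IC50 from percent control activity versus log inhibitor.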

Sequence of PI3Kδ (p110δ/p85α) (O00329 whole entry): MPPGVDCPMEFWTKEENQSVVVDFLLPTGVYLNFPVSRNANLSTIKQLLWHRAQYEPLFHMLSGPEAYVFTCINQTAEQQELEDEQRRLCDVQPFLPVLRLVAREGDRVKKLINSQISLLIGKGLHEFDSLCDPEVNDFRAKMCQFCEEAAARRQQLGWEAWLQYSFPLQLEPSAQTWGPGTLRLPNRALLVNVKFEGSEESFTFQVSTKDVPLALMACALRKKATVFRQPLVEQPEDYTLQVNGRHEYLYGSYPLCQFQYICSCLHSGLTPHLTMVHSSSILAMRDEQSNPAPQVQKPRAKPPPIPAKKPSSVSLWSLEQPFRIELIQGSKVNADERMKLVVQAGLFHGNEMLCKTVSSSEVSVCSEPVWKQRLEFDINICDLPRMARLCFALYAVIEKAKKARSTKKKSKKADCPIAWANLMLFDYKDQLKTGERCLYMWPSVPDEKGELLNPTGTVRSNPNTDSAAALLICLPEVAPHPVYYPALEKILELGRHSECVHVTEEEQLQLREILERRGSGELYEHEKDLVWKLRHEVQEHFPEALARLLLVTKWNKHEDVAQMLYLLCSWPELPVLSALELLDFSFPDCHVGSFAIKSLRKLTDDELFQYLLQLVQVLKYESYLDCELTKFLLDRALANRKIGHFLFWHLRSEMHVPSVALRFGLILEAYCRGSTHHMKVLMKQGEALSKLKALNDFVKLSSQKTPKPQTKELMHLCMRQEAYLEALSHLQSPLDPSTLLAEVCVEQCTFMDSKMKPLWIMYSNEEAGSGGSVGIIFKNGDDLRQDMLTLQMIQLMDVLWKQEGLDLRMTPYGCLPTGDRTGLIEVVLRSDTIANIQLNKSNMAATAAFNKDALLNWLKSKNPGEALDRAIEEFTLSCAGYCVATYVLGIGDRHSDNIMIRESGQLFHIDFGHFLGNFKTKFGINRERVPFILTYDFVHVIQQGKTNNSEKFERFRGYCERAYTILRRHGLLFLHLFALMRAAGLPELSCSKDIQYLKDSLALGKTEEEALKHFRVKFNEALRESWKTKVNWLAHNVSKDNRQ
Sequence of PI3Kδ (p110δ/p85α) (P27986 whole entry partner): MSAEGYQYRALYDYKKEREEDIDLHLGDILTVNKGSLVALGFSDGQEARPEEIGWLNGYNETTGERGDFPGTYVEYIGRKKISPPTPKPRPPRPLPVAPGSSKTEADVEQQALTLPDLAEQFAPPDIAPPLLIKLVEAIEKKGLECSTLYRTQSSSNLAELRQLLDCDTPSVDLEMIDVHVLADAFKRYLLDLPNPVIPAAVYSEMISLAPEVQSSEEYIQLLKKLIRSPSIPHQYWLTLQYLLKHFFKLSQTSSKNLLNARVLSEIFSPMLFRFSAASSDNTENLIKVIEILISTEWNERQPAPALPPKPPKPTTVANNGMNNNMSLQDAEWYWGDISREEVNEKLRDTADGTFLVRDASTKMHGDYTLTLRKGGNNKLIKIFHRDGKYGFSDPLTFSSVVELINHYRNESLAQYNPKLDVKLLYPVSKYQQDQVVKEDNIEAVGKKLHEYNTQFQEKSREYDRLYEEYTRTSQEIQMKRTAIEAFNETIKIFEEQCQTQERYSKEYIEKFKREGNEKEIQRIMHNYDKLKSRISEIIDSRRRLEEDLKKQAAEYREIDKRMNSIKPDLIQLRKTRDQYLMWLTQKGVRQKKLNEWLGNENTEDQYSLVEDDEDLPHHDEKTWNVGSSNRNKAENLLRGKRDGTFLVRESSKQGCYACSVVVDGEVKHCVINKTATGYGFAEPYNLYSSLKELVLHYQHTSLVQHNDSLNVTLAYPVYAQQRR

| Compound | relative activity among the four separated diastereomers (peaks 1-4) |
| --- | --- |
| CCOc1c(C(C)n2nc(C)c3c(N)ncnc32)cc(Cl)c(F)c1C1CNC(=O)O1 (stereo not drawn) [Example 357, 5-{3-[1-(4-amino-3-methyl-1H-pyrazolo[3,4-d]pyrimidin-1-yl)ethyl]-5-chloro-2-ethoxy-6-fluorophenyl}-1,3-oxazolidin-2-one] | most active enantiomer |

Same assay, conditions: scintillation proximity assay, 20 μM ATP, 4 nM PI3Kδ; read-out: PI3Kδ SPA IC50

| Compound | IC50 [nM] |
| --- | --- |
| CCOc1c(C(C)n2nc(C(F)F)c3c(N)ncnc32)cc(Cl)c(F)c1C1CN(C[C@@H](C)O)C1 (stereo partly drawn) [Example 155, (2R)-1-[3-(3-{1-[4-Amino-3-(difluoromethyl)-1H-pyrazolo[3,4-d]pyrimidin-1-yl]ethyl}-5-chloro-2-ethoxy-6-fluorophenyl)azetidin-1-yl]propan-2-ol] | < 10 |
| COc1c(C(C)n2nc(C)c3c(N)ncnc32)cc(Cl)c(C)c1C1CN([C@H](C)CO)C1 (stereo partly drawn) [Example 156, (2R)-2-(3-{3-[1-(4-Amino-3-methyl-1H-pyrazolo[3,4-d]pyrimidin-1-yl)ethyl]-5-chloro-2-methoxy-6-methylphenyl}azetidin-1-yl)propan-1-ol] | < 10 |
| COc1c(C(C)n2nc(C)c3c(N)ncnc32)cc(Cl)c(C)c1C1CN(CC(C)(C)O)C1 (stereo not drawn) [Example 158, 1-(3-{3-[1-(4-Amino-3-methyl-1H-pyrazolo[3,4-d]pyrimidin-1-yl)ethyl]-5-chloro-2-methoxy-6-methylphenyl}azetidin-1-yl)-2-methylpropan-2-ol] | < 10 |
| COc1c(C(C)n2nc(C)c3c(N)ncnc32)cc(Cl)c(C)c1C1CN([C@H](C)C(=O)N(C)C)C1 (stereo partly drawn) [Example 159, (2R)-2-(3-{3-[1-(4-Amino-3-methyl-1H-pyrazolo[3,4-d]pyrimidin-1-yl)ethyl]-5-chloro-2-methoxy-6-methylphenyl}azetidin-1-yl)-N,N-dimethylpropanamide] | < 10 |
| COc1c(C(C)n2nc(C)c3c(N)ncnc32)cc(Cl)c(C)c1C1CN([C@@H](C)C(=O)N(C)C)C1 (stereo partly drawn) [Example 160, (2S)-2-(3-{3-[1-(4-Amino-3-methyl-1H-pyrazolo[3,4-d]pyrimidin-1-yl)ethyl]-5-chloro-2-methoxy-6-methylphenyl}azetidin-1-yl)-N,N-dimethylpropanamide] | < 10 |
| COc1c(C(C)n2nc(C)c3c(N)ncnc32)cc(Cl)c(C)c1C1CN(CC(C)C#N)C1 (stereo not drawn) [Example 162, 3-(3-{3-[1-(4-Amino-3-methyl-1H-pyrazolo[3,4-d]pyrimidin-1-yl)ethyl]-5-chloro-2-methoxy-6-methylphenyl}azetidin-1-yl)-2-methylpropanenitrile] | < 10 |
| COc1c(C(C)n2nc(C)c3c(N)ncnc32)cc(Cl)c(C)c1-c1cnn(C(C)C(=O)N(C)C)c1 (stereo not drawn) [Example 207, 2-(4-(3-(1-(4-amino-3-methyl-1H-pyrazolo[3,4-d]pyrimidin-1-yl)ethyl)-5-chloro-2-methoxy-6-methylphenyl)-1H-pyrazol-1-yl)-N,N-dimethylpropanamide] | < 10 |
| CCOc1c(C(C)n2nc(C)c3c(N)ncnc32)cc(Cl)c(C#N)c1C1CN(C(C)(C)C(=O)OC(C)(C)C)C1 (stereo not drawn) [Example 236, tert-Butyl 2-(3-{3-[1-(4-amino-3-methyl-1H-pyrazolo[3,4-d]pyrimidin-1-yl)ethyl]-5-chloro-6-cyano-2-ethoxyphenyl}azetidin-1-yl)-2-methylpropanoate] | < 10 |
| COc1c(C(C)n2nc(C)c3c(N)ncnc32)cc(Cl)c(Cl)c1C1CN(C[C@H](C)O)C1 (stereo partly drawn) [Example 301, (2S)-1-(3-{3-[1-(4-Amino-3-methyl-1H-pyrazolo[3,4-d]pyrimidin-1-yl)ethyl]-5,6-dichloro-2-methoxyphenyl}azetidin-1-yl)propan-2-ol] | < 10 |
| COc1c(C(C)n2nc(C)c3c(N)ncnc32)cc(Cl)c(Cl)c1C1CN(C[C@@H](C)O)C1 (stereo partly drawn) [Example 302, (2R)-1-(3-{3-[1-(4-Amino-3-methyl-1H-pyrazolo[3,4-d]pyrimidin-1-yl)ethyl]-5,6-dichloro-2-methoxyphenyl}azetidin-1-yl)propan-2-ol] | < 10 |
| CCOc1c(C(C)n2cc(C)c3c(N)ncnc32)cc(Cl)c(C#N)c1C1CN(C(C)C)C1 (stereo not drawn) [Example 307, 4-[1-(4-Amino-5-methyl-7H-pyrrolo[2,3-d]pyrimidin-7-yl)ethyl]-6-chloro-3-ethoxy-2-(1-isopropylazetidin-3-yl)benzonitrile] | < 10 |
| CCOc1c(C(C)n2cc(C)c3c(N)ncnc32)cc(Cl)c(C#N)c1C1CN(CCO)C1 (stereo not drawn) [Example 308, 4-[1-(4-Amino-5-methyl-7H-pyrrolo[2,3-d]pyrimidin-7-yl)ethyl]-6-chloro-3-ethoxy-2-[1-(2-hydroxyethyl)azetidin-3-yl]benzonitrile] | < 10 |
| CCOc1c(C(C)n2cc(C)c3c(N)ncnc32)cc(Cl)c(C#N)c1C1CN(C[C@H](C)O)C1 (stereo partly drawn) [Example 309, 4-[1-(4-Amino-5-methyl-7H-pyrrolo[2,3-d]pyrimidin-7-yl)ethyl]-6-chloro-3-ethoxy-2-{1-[(2S)-2-hydroxypropyl]azetidin-3-yl}benzonitrile] | < 10 |
| CCOc1c(C(C)n2nc(C)c3c(N)ncnc32)cc(Cl)c(C#N)c1N1CC(OC)C1 (stereo not drawn) [Example 319, 4-[1-(4-amino-3-methyl-1H-pyrazolo[3,4-d]pyrimidin-1-yl)ethyl]-6-chloro-3-ethoxy-2-(3-methoxyazetidin-1-yl)benzonitrile] | < 10 |
| COc1c(C(C)n2nc(C)c3c(N)ncnc32)cc(Cl)c(C)c1C1CNC(=O)O1 (stereo not drawn) [Example 325, 5-{3-[1-(4-Amino-3-methyl-1H-pyrazolo[3,4-d]pyrimidin-1-yl)ethyl]-5-chloro-2-methoxy-6-methylphenyl}-1,3-oxazolidin-2-one] | < 10 |
| COc1c(C(C)n2nc(C)c3c(N)ncnc32)cc(C)c(C#N)c1C1CN(CC(C)(C)O)C1 (stereo not drawn) [Example 328, 4-[-1-(4-amino-3-methyl-1H-pyrazolo[3,4-d]pyrimidin-1-yl)ethyl]-2-[l-(2-hydroxy-2-methylpropyl)azetidin-3-yl]-3-methoxy-6-methylbenzonitrile] | < 10 |
| COc1c(C(C)n2cc(-c3cn[nH]c3)c(=O)c3c(N)ncnc32)cc(Cl)c(C)c1-c1ccc(C(=O)N(C)C)nc1 (stereo not drawn) [Example 359, 5-(3-{1-[4-Amino-5-oxo-6-(1H-pyrazol-4-yl)pyrido[2,3-d]pyrimidin-8(5H)-yl]ethyl}-5-chloro-2-methoxy-6-methylphenyl)-N,N-dimethylpyridine-2-carboxamide] | < 10 |
| COc1c(C(C)n2cc(C)c(=O)c3c(N)ncnc32)cc(Cl)c(C)c1-c1ccc(C(=O)N(C)C)nc1 (stereo not drawn) [Example 360, 5-{3-[1-(4-Amino-6-methyl-5-oxopyrido[2,3-d]pyrimidin-8(5H)-yl)ethyl]-5-chloro-2-methoxy-6-methylphenyl}-N,N-dimethylpyridine-2-carboxamide bis(trifluoroacetate)] | < 10 |
| COc1c([C@H](C)n2nc(C)c3c(N)ncnc32)cc(Cl)c(C#N)c1C1CN(C[C@@H](C)O)C1 [Example 362, 4-((S)-1-(4-amino-3-methyl-1H-pyrazolo[3,4-d]pyrimidin-1-yl)ethyl)-6-chloro-2-(1-((R)-2-hydroxypropyl)azetidin-3-yl)-3-methoxybenzonitrile] | < 10 |

The compounds below were run on Pfeiffer cell line (diffuse large B cell lymphoma) (assay: Example B2: Pfeiffer cell proliferation assay). Settings: Homo sapiens, Pfeiffer, Pfeiffer cells, [3H]-thymidine incorporation.
Assay type: cell-based
Protocol: Pfeiffer cell line (diffuse large B cell lymphoma) are purchased from ATCC (Manassas, Va.) and maintained in the culture medium recommended (RPMI and 10% FBS). To measure the anti-proliferation activity of the compounds, the Pfeiffer cells are plated with the culture medium (2×10^3 cells/well/per 200 μl) into 96-well ultra-low binding plates (Corning, Corning, N.Y.), in the presence or absence of a concentration range of test compounds. After 3-4 days, [^3H]-thymidine (1 μCi/well) (PerkinElmer, Boston, Mass.) in PBS is then added to the cell culture for an additional 12 hours before the incorporated radioactivity is separated by filtration with water through GF/B filters (Packard Bioscience, Meridenj, Conn.) and measured by liquid scintillation counting with a TopCount (Packard Bioscience).

| Compound | IC50 [nM] |
| --- | --- |
| COc1c(C(C)n2nc(C(F)F)c3c(N)ncnc32)cc(Cl)c(F)c1C1CN(C)C1 (racemic) [Example 75, 1-{1-[5-Chloro-4-fluoro-2-methoxy-3-(1-methylazetidin-3-yl)phenyl]ethyl}-3-(difluoromethyl)-1H-pyrazolo[3,4-d]pyrimidin-4-amine] | < 10 |
| CCOc1c(C(C)n2nc(C)c3c(N)ncnc32)cc(Cl)c(F)c1C1CN(CCO)C1 (racemic) [Example 144, 2-(3-{3-[1-(4-Amino-3-methyl-1H-pyrazolo[3,4-d]pyrimidin-1-yl)ethyl]-5-chloro-2-ethoxy-6-fluorophenyl}azetidin-1-yl)ethanol] | < 10 |
| CCOc1c(C(C)n2nc(C)c3c(N)ncnc32)cc(Cl)c(F)c1C1CN(CC(N)=O)C1 (racemic) [Example 148, 2-(3-{3-[1-(4-Amino-3-methyl-1H-pyrazolo[3,4-d]pyrimidin-1-yl)ethyl]-5-chloro-2-ethoxy-6-fluorophenyl}azetidin-1-yl)acetamide] | < 10 |
| CCOc1c(C(C)n2nc(C(F)F)c3c(N)ncnc32)cc(Cl)c(F)c1C1CN(CCO)C1 (racemic) [Example 152, 2-[3-(3-{1-[4-Amino-3-(difluoromethyl)-1H-pyrazolo[3,4-d]pyrimidin-1-yl]ethyl}-5-chloro-2-ethoxy-6-fluorophenyl)azetidin-1-yl]ethanol] | < 10 |
| COc1c(C(C)n2nc(C)c3c(N)ncnc32)cc(Cl)c(F)c1C1CN(C[C@H](C)O)C1 (single isomer, unassigned) [68 (1st peak)] | < 10 |
| COc1c(C(C)n2nc(C)c3c(N)ncnc32)cc(Cl)c(C)c1C1CN(CC(N)=O)C1 (single isomer, unassigned) [Example 111, 2-(3-{3-[1-(4-Amino-3-methyl-1H-pyrazolo[3,4-d]pyrimidin-1-yl)ethyl]-5-chloro-2-methoxy-6-methylphenyl}azetidin-1-yl)acetamide] | < 10 |
| COc1c(C(C)n2nc(C)c3c(N)ncnc32)cc(Cl)c(C)c1C1CN(C(=O)[C@@H](C)O)C1 (single isomer, unassigned) [Example 121, trifluoroacetate] | 10 to 50 |

— patent publication US10092570B2 (Incyte Corporation, priority 2011, dated 2018)
